Read-outs that look alike come from different tables or passages of the source.
Experiments:
Experiment in all cases: KINOMEscan in vitro binding to 468 labeled protein kinases
protein kinases [1] = biological target: T1, protein kinases (Homo sapiens, UniProt P06241); details: FYN, read-out: Test compound/solvent control (%)
T1 construct: purchased Discovery X company (USA), KINOMEscan screening platform
How it was run: (§1)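 Duplicate in vitro binding reactions at 1 nM, 10 nM and 1000 nM compound against a panel of 468 labelled protein kinases (KINOMEscan). Binding expressed relative to solvent control as a percentage, stronger affinity giving a lower value.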

protein kinases [2] = biological target: T2, protein kinases (Homo sapiens, UniProt P08922); details: ROS1, read-out: Test compound/solvent control (%)
T2 construct: purchased Discovery X company (USA), KINOMEscan screening platform
How it was run: as §1

protein kinases [3] = biological target: T3, protein kinases (Homo sapiens, UniProt P00533, DEL752-759); details: EGFR(S752-1759del)
T3 construct: purchased Discovery X company (USA), KINOMEscan screening platform
How it was run: as §1

protein kinases [4] = biological target: T4, protein kinases (Homo sapiens, UniProt P00519, Y253F); details: ABL1(Y253F)-phosphorylated, read-out: Test compound/solvent control (%)
T4 construct: purchased Discovery X company (USA), KINOMEscan screening platform
How it was run: as §1

protein kinases [5] = biological target: T5, protein kinases (Homo sapiens, UniProt P06239); details: LCK, read-out: Test compound/solvent control (%)
T5 construct: purchased Discovery X company (USA), KINOMEscan screening platform
How it was run: as §1

protein kinases [6] = biological target: T6, protein kinases (Homo sapiens, UniProt P35590); details: TIE1, read-out: Test compound/solvent control (%)
T6 construct: purchased Discovery X company (USA), KINOMEscan screening platform
How it was run: as §1

protein kinases [7] = biological target: T7, protein kinases (Homo sapiens, UniProt P07949, M918T); details: RET(M918T), read-out: Test compound/solvent control (%)
T7 construct: purchased Discovery X company (USA), KINOMEscan screening platform
How it was run: as §1

protein kinases [8] = biological target: T8, protein kinases (Homo sapiens, UniProt P36888, D835H); details: FLT3(D835H), read-out: Test compound/solvent control (%)
T8 construct: purchased Discovery X company (USA), KINOMEscan screening platform
T8 sequence (P36888 27-993 D835H): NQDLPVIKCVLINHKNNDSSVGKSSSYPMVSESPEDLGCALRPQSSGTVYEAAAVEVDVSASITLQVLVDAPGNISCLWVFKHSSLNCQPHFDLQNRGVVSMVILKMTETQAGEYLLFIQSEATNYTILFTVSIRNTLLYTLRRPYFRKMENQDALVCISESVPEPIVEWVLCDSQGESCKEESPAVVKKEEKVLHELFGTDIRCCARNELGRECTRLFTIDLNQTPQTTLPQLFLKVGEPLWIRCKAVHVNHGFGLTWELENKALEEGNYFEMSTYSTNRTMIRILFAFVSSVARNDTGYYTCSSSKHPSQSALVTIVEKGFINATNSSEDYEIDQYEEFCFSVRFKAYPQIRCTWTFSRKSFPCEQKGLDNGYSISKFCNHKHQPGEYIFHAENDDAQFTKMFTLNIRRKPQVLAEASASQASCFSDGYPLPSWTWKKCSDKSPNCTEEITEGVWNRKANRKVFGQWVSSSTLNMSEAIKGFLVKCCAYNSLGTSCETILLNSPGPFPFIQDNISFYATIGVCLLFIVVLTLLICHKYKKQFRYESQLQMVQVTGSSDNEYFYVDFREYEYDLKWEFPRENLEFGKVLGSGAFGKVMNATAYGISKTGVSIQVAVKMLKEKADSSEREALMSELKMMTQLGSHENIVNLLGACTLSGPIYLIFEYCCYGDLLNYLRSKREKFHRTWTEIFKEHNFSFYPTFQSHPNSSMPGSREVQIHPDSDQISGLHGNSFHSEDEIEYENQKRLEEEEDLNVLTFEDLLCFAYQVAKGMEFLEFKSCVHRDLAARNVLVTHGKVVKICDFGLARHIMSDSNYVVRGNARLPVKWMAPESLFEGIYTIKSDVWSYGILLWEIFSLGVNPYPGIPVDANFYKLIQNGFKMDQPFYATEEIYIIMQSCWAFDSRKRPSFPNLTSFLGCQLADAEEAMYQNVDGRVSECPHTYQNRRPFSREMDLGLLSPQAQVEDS
How it was run: as §1

protein kinases [9] = biological target: T9, protein kinases (Homo sapiens, UniProt P00519, H396P); details: read-out: Test compound/solvent control (%); for remaining binding at 0.001 µM: 1 nM; for remaining binding at 0.01 µM: 10 nM; for remaining binding at 1 µM: 1000 nM
T9 construct: purchased Discovery X company (USA), KINOMEscan screening platform
How it was run: as §1

protein kinases [10] = biological target: T10, protein kinases (Homo sapiens, UniProt Q16288); details: TRKC (NTRK3), read-out: Test compound/solvent control (%)
T10 construct: purchased Discovery X company (USA), KINOMEscan screening platform
How it was run: as §1

protein kinases [11] = biological target: T11, protein kinases (Homo sapiens, UniProt P22607); details: FGFR3, read-out: Test compound/solvent control (%)
T11 construct: purchased Discovery X company (USA), KINOMEscan screening platform
How it was run: as §1

protein kinases [12] = biological target: T12, protein kinases (Homo sapiens, UniProt P00519, F317L); details: read-out: Test compound/solvent control (%); for remaining binding at 0.001 µM: 1 nM; for remaining binding at 0.01 µM: 10 nM; for remaining binding at 1 µM: 1000 nM
T12 construct: purchased Discovery X company (USA), KINOMEscan screening platform
How it was run: as §1

protein kinases [13] = biological target: T13, protein kinases (Homo sapiens, UniProt P00519, Q252H); details: read-out: Test compound/solvent control (%); for remaining binding at 0.001 µM: 1 nM; for remaining binding at 0.01 µM: 10 nM; for remaining binding at 1 µM: 1000 nM
T13 construct: purchased Discovery X company (USA), KINOMEscan screening platform
How it was run: as §1

T10 sequence (Q16288 32-839): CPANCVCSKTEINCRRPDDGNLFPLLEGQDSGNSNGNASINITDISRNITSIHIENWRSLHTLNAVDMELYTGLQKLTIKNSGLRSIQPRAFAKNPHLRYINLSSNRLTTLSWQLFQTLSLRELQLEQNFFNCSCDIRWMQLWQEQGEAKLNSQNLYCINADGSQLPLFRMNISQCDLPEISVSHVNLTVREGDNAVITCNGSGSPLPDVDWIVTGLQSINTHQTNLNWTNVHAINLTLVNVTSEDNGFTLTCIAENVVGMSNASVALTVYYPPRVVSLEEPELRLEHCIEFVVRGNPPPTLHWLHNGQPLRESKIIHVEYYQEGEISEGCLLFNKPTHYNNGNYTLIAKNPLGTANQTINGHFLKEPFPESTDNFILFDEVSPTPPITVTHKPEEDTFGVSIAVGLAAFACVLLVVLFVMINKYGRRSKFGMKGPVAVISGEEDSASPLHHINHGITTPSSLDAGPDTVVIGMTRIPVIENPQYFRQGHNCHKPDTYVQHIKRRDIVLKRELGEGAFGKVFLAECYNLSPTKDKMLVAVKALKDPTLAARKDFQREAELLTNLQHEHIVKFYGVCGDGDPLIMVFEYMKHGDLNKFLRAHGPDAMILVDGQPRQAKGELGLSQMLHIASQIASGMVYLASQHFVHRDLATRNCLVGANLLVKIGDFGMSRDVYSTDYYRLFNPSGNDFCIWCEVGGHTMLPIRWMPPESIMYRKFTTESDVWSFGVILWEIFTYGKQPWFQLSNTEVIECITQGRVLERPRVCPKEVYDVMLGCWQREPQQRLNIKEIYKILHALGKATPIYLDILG
T7 sequence (P07949 29-1114 M918T): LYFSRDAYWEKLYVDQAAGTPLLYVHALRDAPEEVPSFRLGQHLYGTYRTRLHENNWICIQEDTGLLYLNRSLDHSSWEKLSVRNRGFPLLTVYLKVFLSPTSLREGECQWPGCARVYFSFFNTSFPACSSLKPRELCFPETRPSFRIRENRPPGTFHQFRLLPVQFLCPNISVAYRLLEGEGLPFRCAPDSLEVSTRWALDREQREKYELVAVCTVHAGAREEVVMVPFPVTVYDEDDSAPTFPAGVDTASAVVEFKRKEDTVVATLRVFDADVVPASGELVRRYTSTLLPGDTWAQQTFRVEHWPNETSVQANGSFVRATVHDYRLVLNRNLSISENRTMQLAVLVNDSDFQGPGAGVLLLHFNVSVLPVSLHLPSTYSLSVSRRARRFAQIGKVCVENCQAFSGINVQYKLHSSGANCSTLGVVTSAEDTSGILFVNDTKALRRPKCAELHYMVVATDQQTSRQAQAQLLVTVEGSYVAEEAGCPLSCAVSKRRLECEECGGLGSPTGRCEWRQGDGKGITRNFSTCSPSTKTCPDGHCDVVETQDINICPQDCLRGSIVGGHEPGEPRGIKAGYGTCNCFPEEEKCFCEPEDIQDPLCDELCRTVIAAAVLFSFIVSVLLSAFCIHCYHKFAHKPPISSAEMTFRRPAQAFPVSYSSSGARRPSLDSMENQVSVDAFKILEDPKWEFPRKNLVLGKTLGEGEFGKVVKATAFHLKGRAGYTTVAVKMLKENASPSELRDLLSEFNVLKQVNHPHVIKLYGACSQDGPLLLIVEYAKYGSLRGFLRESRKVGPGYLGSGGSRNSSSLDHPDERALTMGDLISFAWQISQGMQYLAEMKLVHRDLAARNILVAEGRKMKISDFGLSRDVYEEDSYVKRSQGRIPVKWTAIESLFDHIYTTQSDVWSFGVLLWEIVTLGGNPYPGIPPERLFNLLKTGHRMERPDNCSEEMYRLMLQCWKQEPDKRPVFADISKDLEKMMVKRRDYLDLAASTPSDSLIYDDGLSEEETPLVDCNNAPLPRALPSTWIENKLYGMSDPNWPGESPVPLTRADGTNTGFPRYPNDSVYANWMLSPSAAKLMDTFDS
T2 sequence (P08922 28-2347): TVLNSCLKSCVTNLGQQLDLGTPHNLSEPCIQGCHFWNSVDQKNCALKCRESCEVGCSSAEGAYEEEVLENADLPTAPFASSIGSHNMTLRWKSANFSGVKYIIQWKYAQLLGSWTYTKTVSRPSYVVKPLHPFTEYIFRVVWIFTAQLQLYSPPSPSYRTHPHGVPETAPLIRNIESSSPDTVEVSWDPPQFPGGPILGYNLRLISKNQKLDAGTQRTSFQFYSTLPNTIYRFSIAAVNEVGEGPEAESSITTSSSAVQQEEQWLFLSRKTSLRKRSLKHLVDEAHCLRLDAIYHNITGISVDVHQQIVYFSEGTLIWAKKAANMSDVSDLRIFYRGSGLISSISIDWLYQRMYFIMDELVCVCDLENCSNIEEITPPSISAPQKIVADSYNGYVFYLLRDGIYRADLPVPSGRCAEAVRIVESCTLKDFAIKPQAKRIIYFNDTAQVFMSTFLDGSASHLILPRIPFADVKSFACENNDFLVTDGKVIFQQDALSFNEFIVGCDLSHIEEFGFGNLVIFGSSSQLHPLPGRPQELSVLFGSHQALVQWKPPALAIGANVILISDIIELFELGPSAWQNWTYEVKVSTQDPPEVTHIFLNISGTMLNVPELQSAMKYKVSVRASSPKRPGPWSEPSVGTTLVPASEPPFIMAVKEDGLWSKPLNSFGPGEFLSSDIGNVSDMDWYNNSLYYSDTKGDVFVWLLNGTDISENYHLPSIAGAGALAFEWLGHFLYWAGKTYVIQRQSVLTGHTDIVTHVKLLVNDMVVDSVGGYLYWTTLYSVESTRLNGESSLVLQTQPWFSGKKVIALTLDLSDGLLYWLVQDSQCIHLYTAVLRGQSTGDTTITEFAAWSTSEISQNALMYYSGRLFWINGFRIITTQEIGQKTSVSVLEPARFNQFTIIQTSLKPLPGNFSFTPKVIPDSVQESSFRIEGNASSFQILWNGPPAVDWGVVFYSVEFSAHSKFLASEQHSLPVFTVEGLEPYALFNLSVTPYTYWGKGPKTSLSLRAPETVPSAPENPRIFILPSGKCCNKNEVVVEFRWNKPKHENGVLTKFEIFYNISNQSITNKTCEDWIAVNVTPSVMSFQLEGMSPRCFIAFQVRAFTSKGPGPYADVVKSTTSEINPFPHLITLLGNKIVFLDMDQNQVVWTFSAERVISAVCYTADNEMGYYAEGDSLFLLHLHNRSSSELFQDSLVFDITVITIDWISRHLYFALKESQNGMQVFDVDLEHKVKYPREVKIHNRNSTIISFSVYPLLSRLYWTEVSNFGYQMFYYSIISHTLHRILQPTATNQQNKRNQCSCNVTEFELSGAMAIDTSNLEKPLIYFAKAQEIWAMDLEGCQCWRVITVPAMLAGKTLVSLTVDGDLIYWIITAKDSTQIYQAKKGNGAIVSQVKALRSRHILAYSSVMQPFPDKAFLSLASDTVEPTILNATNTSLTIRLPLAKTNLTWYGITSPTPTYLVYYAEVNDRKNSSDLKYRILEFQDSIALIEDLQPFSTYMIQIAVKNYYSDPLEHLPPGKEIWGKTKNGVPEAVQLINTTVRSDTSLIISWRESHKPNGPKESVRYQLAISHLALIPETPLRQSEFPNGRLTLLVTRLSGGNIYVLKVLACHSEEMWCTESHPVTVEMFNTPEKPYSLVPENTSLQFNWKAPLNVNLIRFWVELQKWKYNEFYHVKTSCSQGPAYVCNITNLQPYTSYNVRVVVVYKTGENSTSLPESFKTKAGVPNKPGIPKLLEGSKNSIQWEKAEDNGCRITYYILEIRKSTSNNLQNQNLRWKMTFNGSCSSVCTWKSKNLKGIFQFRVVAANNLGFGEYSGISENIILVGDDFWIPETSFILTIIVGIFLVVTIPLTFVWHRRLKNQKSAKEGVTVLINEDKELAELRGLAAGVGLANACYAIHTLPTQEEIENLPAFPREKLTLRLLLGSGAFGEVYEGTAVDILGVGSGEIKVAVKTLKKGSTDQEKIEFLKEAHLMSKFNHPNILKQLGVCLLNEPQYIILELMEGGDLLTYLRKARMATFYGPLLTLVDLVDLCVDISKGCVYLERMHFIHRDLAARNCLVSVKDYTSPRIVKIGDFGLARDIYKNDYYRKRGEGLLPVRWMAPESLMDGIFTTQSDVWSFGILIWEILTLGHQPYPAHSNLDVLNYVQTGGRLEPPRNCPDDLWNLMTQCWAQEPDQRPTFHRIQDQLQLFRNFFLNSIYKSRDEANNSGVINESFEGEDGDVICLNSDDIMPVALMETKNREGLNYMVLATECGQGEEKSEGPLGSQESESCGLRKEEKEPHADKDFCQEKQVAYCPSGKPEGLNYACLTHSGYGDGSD
T5 sequence (P06239 whole entry): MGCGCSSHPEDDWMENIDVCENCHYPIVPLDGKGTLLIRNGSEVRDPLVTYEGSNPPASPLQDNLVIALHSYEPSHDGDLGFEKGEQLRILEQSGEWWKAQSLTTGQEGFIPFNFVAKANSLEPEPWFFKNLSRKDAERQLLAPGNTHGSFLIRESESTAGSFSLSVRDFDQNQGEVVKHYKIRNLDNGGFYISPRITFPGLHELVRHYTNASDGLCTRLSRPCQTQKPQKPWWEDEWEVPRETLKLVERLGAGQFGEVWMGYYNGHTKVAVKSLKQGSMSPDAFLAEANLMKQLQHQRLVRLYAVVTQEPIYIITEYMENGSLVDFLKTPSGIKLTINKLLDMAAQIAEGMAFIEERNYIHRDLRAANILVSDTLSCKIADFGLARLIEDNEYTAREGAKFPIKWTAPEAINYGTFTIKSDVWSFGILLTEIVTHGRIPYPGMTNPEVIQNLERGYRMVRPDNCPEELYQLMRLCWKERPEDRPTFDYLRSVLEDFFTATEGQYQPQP

COCCOc1cc2nccc(Oc3ccc(NC(=O)Nc4cc(C(C)(C)C)n[nH]4)c(Cl)c3)c2cc1NC(C)=O [Compound 66, N-[4-{4-[3-(5-tert-butyl-2H-pyrazol-3-yl)-ureido]-3-chloro-phenoxy}-7-(2-methoxy-ethoxy)-quinolin-6-yl]-acetamide]
remaining binding at 0.001 µM (protein kinases [1]; 1 nM): 94% | remaining binding at 0.01 µM (protein kinases [1]; 10 nM): 41% | remaining binding at 1 µM (protein kinases [1]; 1000 nM): 0% | remaining binding at 0.001 µM (protein kinases [2]; 1 nM): 85% | remaining binding at 0.01 µM (protein kinases [2]; 10 nM): 17% | remaining binding at 1 µM (protein kinases [2]; 1000 nM): 4.6% | Test compound/solvent control (%) (protein kinases [3]; 1 nM): 90% | Test compound/solvent control (%) (protein kinases [3]; 10 nM): 29% | Test compound/solvent control (%) (protein kinases [3]; 1000 nM): 0% | remaining binding at 0.001 µM (protein kinases [4]; 1 nM): 80% | remaining binding at 0.01 µM (protein kinases [4]; 10 nM): 11% | remaining binding at 1 µM (protein kinases [4]; 1000 nM): 0.1% | remaining binding at 0.001 µM (protein kinases [5]; 1 nM): 33% | remaining binding at 0.01 µM (protein kinases [5]; 10 nM): 0.65% | remaining binding at 1 µM (protein kinases [5]; 1000 nM): 0.2% | remaining binding at 0.001 µM (protein kinases [6]; 1 nM): 41% | remaining binding at 0.01 µM (protein kinases [6]; 10 nM): 21% | remaining binding at 1 µM (protein kinases [6]; 1000 nM): 2% | remaining binding at 0.001 µM (protein kinases [7]; 1 nM): 78% | remaining binding at 0.01 µM (protein kinases [7]; 10 nM): 8.5% | remaining binding at 1 µM (protein kinases [7]; 1000 nM): 0% | remaining binding at 0.001 µM (protein kinases [8]; 1 nM): 79% | remaining binding at 0.01 µM (protein kinases [8]; 10 nM): 15% | remaining binding at 1 µM (protein kinases [8]; 1000 nM): 1.1% | remaining binding at 0.001 µM (protein kinases [9]; ABL1(H396P)-phosphorylated): 55% | remaining binding at 0.01 µM (protein kinases [9]; ABL1(H396P)-phosphorylated): 9.7% | remaining binding at 1 µM (protein kinases [9]; ABL1(H396P)-phosphorylated): 0% | remaining binding at 0.001 µM (protein kinases [9]; ABL1(H396P)-unphosphorylated): 27% | remaining binding at 0.01 µM (protein kinases [9]; ABL1(H396P)-unphosphorylated): 1.8% | remaining binding at 1 µM (protein kinases [9]; ABL1(H396P)-unphosphorylated): 0.05% | remaining binding at 0.001 µM (protein kinases [10]; 1 nM): 84% | remaining binding at 0.01 µM (protein kinases [10]; 10 nM): 28% | remaining binding at 1 µM (protein kinases [10]; 1000 nM): 0.2% | remaining binding at 0.001 µM (protein kinases [11]; 1 nM): 100% | remaining binding at 0.01 µM (protein kinases [11]; 10 nM): 82% | remaining binding at 1 µM (protein kinases [11]; 1000 nM): 0.2% | remaining binding at 0.001 µM (protein kinases [12]; ABL1(F317L)-phosphorylated): 55% | remaining binding at 0.01 µM (protein kinases [12]; ABL1(F317L)-phosphorylated): 3.7% | remaining binding at 1 µM (protein kinases [12]; ABL1(F317L)-phosphorylated): 1.1% | remaining binding at 0.001 µM (protein kinases [12]; ABL1(F317L)-unphosphorylated): 49% | remaining binding at 0.01 µM (protein kinases [12]; ABL1(F317L)-unphosphorylated): 6.8% | remaining binding at 1 µM (protein kinases [12]; ABL1(F317L)-unphosphorylated): 0.25% | remaining binding at 0.001 µM (protein kinases [13]; ABL1(Q252H)-phosphorylated): 71% | remaining binding at 0.01 µM (protein kinases [13]; ABL1(Q252H)-phosphorylated): 12% | remaining binding at 1 µM (protein kinases [13]; ABL1(Q252H)-phosphorylated): 0.15% | remaining binding at 0.001 µM (protein kinases [13]; ABL1(Q252H)-unphosphorylated): 48% | remaining binding at 0.01 µM (protein kinases [13]; ABL1(Q252H)-unphosphorylated): 7.8% | remaining binding at 1 µM (protein kinases [13]; ABL1(Q252H)-unphosphorylated): 0%

Source: patent publication US10800741B2 (ANCUREALL PHARMACEUTICAL (SHANGHAI) CO., LTD., priority 2017, dated 2020)
